Data published in patent US10023484B2, “Use of peracetic acid/hydrogen peroxide and peroxide-reducing agents for treatment of drilling fluids, frac fluids, flowback water and disposal water” (Ecolab USA Inc., priority 2012, dated 2018).

Experiments:
[1] = test system: fracking water mixtures; experiment: Micro efficacy baseline in fracking water mixtures without catalase (Example 3); type: cell-based
Procedure: The impact of water pretreatment with 500 ppm of the EnviroSan product (75 ppm POAA) on micro efficacy in various fracking water mixtures were evaluated. The example represents a baseline data set of various water treatment options according to the invention. Table 2 and FIG. 3 show the average log reduction in various slick water treatments with varying ppm PAA (without any catalase treatment or pretreatment), representing a baseline data set.

[2] = Titration of POAA consumption in water mixtures (Example 6); type: physicochemical; conditions: 1 minute
[3] = test system: Pseudomonas aeruginosa ATCC 15442; experiment: Micro efficacy at 30 ppm POAA EnviroSan with/without catalase, with/without water pretreatment (Example 7); type: cell-based; conditions: no pretreatment, 30 ppm PAA
Procedure: Additional micro efficacy performance was evaluated to confirm the improved micro efficacy observed in Example 6 when using increasing amounts of produced water with the dosing static initial concentrations of POAA (30 ppm or 40 ppm) with catalase. Improved micro efficacy with increased amounts of produced water present in a mixture is a highly counterintuitive result and was unexpected. Under normal conditions, it would be expected to have decreased micro efficacy as the amount of produced water (e.g. recycled) increases and the amount of POAA remains static as a result of the increased contamination found in produced water as opposed to fresh water sources. As a result, subsequent evaluation observed the activity of the water itself against a spiked culture of P. aeruginosa over a 1 hour exposure period to determine whether the produced water itself has an antimicrobial present.
All water mixtures were treated with an initial concentration of 30 ppm POAA EnviroSan, both with and without the addition of catalase. The data set evaluates whether there is a significant difference in micro activity generated between treatments of EnviroSan alone vs. EnviroSan pre-reduced with catalase.
All ratios of fracking water mixtures tested (100/0, 90/10, 80/20 & 70/30) were freshly mixed solutions, as well as solutions mixed and pretreated with 500 ppm EnviroSan product more than 1 hour before the start of the micro evaluation, in order to observe if a pretreatment step is of value for micro performance compared to those mixtures not pretreated. The test system (P. aeruginosa and natural water) described in Example 5 was again utilized. Water mixtures as outlined in Table 9 were provided (showing the percentage of 100 mL of each water sample type).
The testing methods of Example 5 were utilized for the chemically treated water samples, differing only in the combination of the 10 mL inoculated water mixtures with appropriate volumes of the EnviroSan with or without catalase to achieve 30 ppm POAA residual to each test tube in timed intervals and mixed. The methods of Example 5 were employed to make the EnviroSan with catalase stock solutions. In comparison, for the water samples that were not chemically treated, 9.9 mL of test water mixture was dispensed into 2 individual test tubes. 0.10 mL of an approximate 10^8 CFU/mL culture of P. aeruginosa was added in timed intervals and mixed thoroughly. Then 1 mL samples were neutralized in 9 mL of 0.5% sodium thiosulfate, followed by serial dilution and enumeration after 2.5 minutes, 5 minutes and 60 minute exposure times.
In addition, data for enumeration of water samples for antimicrobial activity against P. aeruginosa over 60 minutes exposure are also summarized in Table 10.

[4] = test system: fracking water mixtures; experiment: Micro efficacy: POAA dosed for 30 ppm residual versus POAA pretreated with catalase (Example 8); type: cell-based
Procedure: A micro efficacy comparison of POAA added at levels to target 30 ppm POAA residuals at 5 minutes versus POAA pretreated with catalase was conducted as set forth in Table 12.

[5] = Effect of catalase and treatment sequence on peracid stability in 80/20 water blends (Example 10); type: physicochemical; conditions: theoretical initial POAA 82 ppm
From the text: The effect of catalase on the peracid stability within treated waters was further evaluated. Water blends of 80/20 (80% fresh water/20% produced water) were employed to analyze the impact on various treatment sequences set forth in Table 14.
Due to the efficacious results shown in FIG. 15, the same methods were used to further evaluate a pretreatment using a lower concentration of the catalase as shown in Table 15.

[6] = Pretreated, catalase CA 400 5.8 ppm
[7] = Simult. Add, catalase CA 400 10 ppm
[8] = Simult. Add, catalase CA 400 100 ppm

Compound: CC(=O)OO [POAA, peracetic acid]
- Avg. Log10 Reduction ([1]; 75 ppm PAA pretreatment, 10% reuse H2O, 29 ppm POAA, NO catalase, 2.5 minutes): 6.45
- Avg. Log10 Reduction ([1]; 75 ppm PAA pretreatment, 10% reuse H2O, 29 ppm POAA, NO catalase, 5 minutes): 6.71
- Avg. Log10 Reduction ([1]; 75 ppm PAA pretreatment, 20% reuse H2O, 47 ppm PAA, NO catalase, 2.5 minutes): 6.42
- Avg. Log10 Reduction ([1]; 75 ppm PAA pretreatment, 20% reuse H2O, 47 ppm PAA, NO catalase, 5 minutes): 6.55
- Avg. Log10 Reduction ([1]; 75 ppm PAA pretreatment, 30% reuse H2O, 86 ppm POAA, NO catalase, 2.5 minutes): 6.47
- Avg. Log10 Reduction ([1]; 75 ppm PAA pretreatment, 30% reuse H2O, 86 ppm POAA, NO catalase, 5 minutes): 6.41
- Avg. Log10 Reduction ([1]; no holding tank pretreatment, 0% reuse H2O, 22 ppm POAA, 2.5 minutes): 5.53
- Avg. Log10 Reduction ([1]; no holding tank pretreatment, 0% reuse H2O, 22 ppm POAA, 5 minutes): 5.75
- Avg. Log10 Reduction ([1]; no pretreatment, 10% reuse H2O, 36 ppm POAA, 2.5 minutes): 4.32
- Avg. Log10 Reduction ([1]; no pretreatment, 10% reuse H2O, 36 ppm POAA, 5 minutes): 4.72
- Avg. Log10 Reduction ([1]; no pretreatment, 20% reuse H2O, 86 ppm POAA, 2.5 minutes): 4.57
- Avg. Log10 Reduction ([1]; no pretreatment, 20% reuse H2O, 86 ppm POAA, 5 minutes): 4.64
- Avg. Log10 Reduction ([1]; no pretreatment, 30% reuse H2O, 138 ppm POAA, 2.5 minutes): 4.12
- Avg. Log10 Reduction ([1]; no pretreatment, 30% reuse H2O, 138 ppm POAA, 5 minutes): 5.00
- Actual Titrated Concentration (ppm POAA) ([2]; 70% Fresh/30% Produced, desired 30 ppm POAA): 7 ppm
- Actual Titrated Concentration (ppm POAA) ([2]; 70% Fresh/30% Produced, desired 40 ppm POAA): 12 ppm
- Actual Titrated Concentration (ppm POAA) ([2]; 80% Fresh/20% Produced, desired 30 ppm POAA): 13 ppm
- Actual Titrated Concentration (ppm POAA) ([2]; 80% Fresh/20% Produced, desired 40 ppm POAA): 21 ppm
- Actual Titrated Concentration (ppm POAA) ([2]; 90% Fresh/10% Produced, desired 30 ppm POAA): 21 ppm
- Actual Titrated Concentration (ppm POAA) ([2]; 90% Fresh/10% Produced, desired 40 ppm POAA): 30 ppm
- Avg. Log10 Reduction ([3]; 0% reuse H2O, Catalase, 2.5 minutes): 4.62
- Avg. Log10 Reduction ([3]; 0% reuse H2O, Catalase, 5 minutes): 6.22
- Avg. Log10 Reduction ([3]; 0% reuse H2O, NO Catalase, 2.5 minutes): 4.64
- Avg. Log10 Reduction ([3]; 0% reuse H2O, NO Catalase, 5 minutes): 6.32
- Avg. Log10 Reduction ([3]; 10% reuse H2O, Catalase, 2.5 minutes): 5.29
- Avg. Log10 Reduction ([3]; 10% reuse H2O, Catalase, 5 minutes): 5.96
- Avg. Log10 Reduction ([3]; 10% reuse H2O, NO Catalase, 2.5 minutes): 3.09
- Avg. Log10 Reduction ([3]; 10% reuse H2O, NO Catalase, 5 minutes): 3.91
- Avg. Log10 Reduction ([3]; 20% reuse H2O, Catalase, 2.5 minutes): 5.73
- Avg. Log10 Reduction ([3]; 20% reuse H2O, Catalase, 5 minutes): 6.36
- Avg. Log10 Reduction ([3]; 20% reuse H2O, NO Catalase, 2.5 minutes): 2.19
- Avg. Log10 Reduction ([3]; 20% reuse H2O, NO Catalase, 5 minutes): 2.38
- Avg. Log10 Reduction ([3]; 30% reuse H2O, Catalase, 2.5 minutes): 5.30
- Avg. Log10 Reduction ([3]; 30% reuse H2O, Catalase, 5 minutes): 5.98
- Avg. Log10 Reduction ([3]; 30% reuse H2O, NO Catalase, 2.5 minutes): 1.88
- Avg. Log10 Reduction ([3]; 30% reuse H2O, NO Catalase, 5 minutes): 1.93
- Avg. Log10 Reduction ([4]; 10% reuse H2O, 30 ppm PAA, Catalase, 2.5 minutes): 5.29
- Avg. Log10 Reduction ([4]; 10% reuse H2O, 30 ppm PAA, Catalase, 5 minutes): 5.96
- Avg. Log10 Reduction ([4]; 10% reuse H2O, 46 ppm PAA, NO Catalase, 2.5 minutes): 4.32
- Avg. Log10 Reduction ([4]; 10% reuse H2O, 46 ppm PAA, NO Catalase, 5 minutes): 4.72
- Avg. Log10 Reduction ([4]; 20% reuse H2O, 30 ppm PAA, Catalase, 2.5 minutes): 5.73
- Avg. Log10 Reduction ([4]; 20% reuse H2O, 30 ppm PAA, Catalase, 5 minutes): 6.36
- Avg. Log10 Reduction ([4]; 20% reuse H2O, 86 ppm PAA, NO Catalase, 2.5 minutes): 4.57
- Avg. Log10 Reduction ([4]; 20% reuse H2O, 86 ppm PAA, NO Catalase, 5 minutes): 4.64
- Avg. Log10 Reduction ([4]; 30% reuse H2O, 30 ppm PAA, Catalase, 2.5 minutes): 5.30
- Avg. Log10 Reduction ([4]; 30% reuse H2O, 30 ppm PAA, Catalase, 5 minutes): 5.98
- Avg. Log10 Reduction ([4]; 30% reuse H2O, 138 ppm PAA, NO Catalase, 2.5 minutes): 4.12
- Avg. Log10 Reduction ([4]; 30% reuse H2O, 138 ppm PAA, NO Catalase, 5 minutes): 5.00
- POAA Meas'd. at 1 min. ([5]; NA, catalase 0 ppm): 56 ppm
- POAA Meas'd. at 4 min. ([5]; NA, catalase 0 ppm): 31 ppm
- POAA Meas'd. at 5 min. ([5]; NA, catalase 0 ppm): 23 ppm
- POAA Meas'd. at 6 min. ([5]; NA, catalase 0 ppm): 17 ppm
- POAA Meas'd. at 1 min. [5, 6]: 76 ppm
- POAA Meas'd. at 4 min. [5, 6]: 75 ppm
- POAA Meas'd. at 5 min. [5, 6]: 75 ppm
- POAA Meas'd. at 6 min. [5, 6]: 75 ppm
- POAA Meas'd. at 1 min. [5, 7]: 63 ppm
- POAA Meas'd. at 4 min. [5, 7]: 34 ppm
- POAA Meas'd. at 5 min. [5, 7]: 31 ppm
- POAA Meas'd. at 6 min. [5, 7]: 26 ppm
- POAA Meas'd. at 1 min. [5, 8]: 66 ppm
- POAA Meas'd. at 4 min. [5, 8]: 61 ppm
- POAA Meas'd. at 5 min. [5, 8]: 65 ppm
- POAA Meas'd. at 6 min. [5, 8]: 58 ppm
